Here are results for 50 compounds from patent US8575203B2, “Chemical compounds” (Boehringer Ingelheim International GmbH, priority 2010, dated 2013).

Each structure is given as a SMILES string. pIC50: −log10 of the molar value.

Chain of Recombinant human PDK1 enzyme (aa 52-556) (O15530 52-556): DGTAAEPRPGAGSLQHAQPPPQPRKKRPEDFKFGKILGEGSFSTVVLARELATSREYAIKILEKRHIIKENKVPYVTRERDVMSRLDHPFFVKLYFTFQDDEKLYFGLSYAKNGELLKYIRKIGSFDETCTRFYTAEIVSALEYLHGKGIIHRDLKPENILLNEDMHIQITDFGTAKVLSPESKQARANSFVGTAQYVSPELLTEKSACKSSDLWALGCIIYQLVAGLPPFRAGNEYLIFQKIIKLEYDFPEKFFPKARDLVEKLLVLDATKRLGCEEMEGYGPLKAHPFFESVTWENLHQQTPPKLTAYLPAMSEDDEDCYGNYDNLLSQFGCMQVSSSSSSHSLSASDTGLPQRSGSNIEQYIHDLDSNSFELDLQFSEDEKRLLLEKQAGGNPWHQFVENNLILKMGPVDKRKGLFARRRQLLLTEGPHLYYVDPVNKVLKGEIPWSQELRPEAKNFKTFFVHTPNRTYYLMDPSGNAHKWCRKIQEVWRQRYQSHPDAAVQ

The test deals with Recombinant human PDK1 enzyme (aa 52-556) (Homo sapiens (Human), UniProt O15530). The experiment in a line: PDK1 kinase assay. In kind it is biochemical. The following applies: in vitro kinase assay, His6-PDK1 (aa 52-556), PDKtide, P33-ATP. The method, then: The activity of the compounds according to the invention on the kinase PDK1 which inhibits the signal transduction pathway is determined in an in vitro kinase assay with recombinantly prepared protein:
Recombinant human PDK1 enzyme (aa 52-556) linked at its N-terminal end to His6 is isolated from baculovirus-infected insect cells. Purified enzyme may be obtained for example from the University of Dundee, Scotland. The following components are combined in a well of a 96-well round-based dish (Greiner bio-one, No. 650101): • 15 μL of compound to be tested in varying concentrations (e.g. starting at 10 μM, and diluted in steps of 1:5) in APT buffer (50 mM Tris/Cl pH 7.5; 0.05% β-mercaptoethanol; 10 mM Mg-acetate; 0.0166% Tween 20; 3.33% DMSO) • 15 μL His6-PDK1 (aa 52-556) 3.33 ng/well) and PDKtide ([…]), synthesised by Pepceuticals Limited, Nottingham, United Kingdom; 25 μM final concentration); His6-PDK1 and PDKtide are together diluted accordingly in assay buffer (50 mM tris pH 7.5, 0.05% β-mercaptoethanol, 10 mM Mg-acetate); PDKtide is present in this mixture as an 83.3 μM solution. These 30 μl are routinely incubated for 30 min at RT. • 20 μL ATP solution (25 μM ATP with 1.0 μCi/well gamma-P33-ATP). The final concentration of Tween 20 is 0.005%.
The reaction is started by adding the ATP solution and the mixture is incubated for 90 min at RT. At the start of the reaction the dishes are shaken gently. The reaction is stopped by the addition of 50 μL/well of 500 mM phosphoric acid (H3PO4) and incubated for about 20 min at RT. The precipitate is transferred by harvesting onto filter plates (96-well microtitre filter plate: UniFilter GF/C; Perkin Elmer; No. 6005174), then washed 6 times with 50 mM H3PO4 and dried at 60° C. Then the plate is stuck down with sealing tape, 25 μL/well of scintillation solution (Microscint 0; Perkin Elmer; No. 6013611) are added and the amount of P33 precipitated is measured using the Wallac Betacounter. The measured data are evaluated using Graphpad Prism software.
For orientation: pIC50 means −log10 of the IC50, conventionally taken in molar units. For the compound `CN(c1ncnc2ccc(C#CCNC(=O)c3cncn(Cc4ccc(F)c(F)c4)c3=O)cc12)C1CCCCC1` [II-22], the pIC50 was 6.43.

Take `COC(C)CCOc1ccnc2ccc(C#CCNC(=O)c3cccn(Cc4ccc(F)c(F)c4)c3=O)cc12` (centres unmarked) [I-110]: the pIC50 is 6.86.

Consider `CN1CCN(C(=O)c2cnc3ccc(C#CCNC(=O)c4cncn(Cc5ccc(F)c(F)c5)c4=O)cc3c2)CC1` [II-84], for which the pIC50 was 6.39. `CN1CCCC1CCNc1ncnc2ccc(C#CCNC(=O)c3cccn(Cc4ccc(F)c(F)c4)c3=O)cc12` (centres unmarked) [II-39]: the negative-log IC50 (pIC50) is 6.86.

For the compound `O=C(NCC#Cc1ccc2ncccc2c1)c1cncn(Cc2ccc(F)c(F)c2)c1=O` [I-80], the pIC50 is 6.88.

As for `NC(=O)CCNc1ncnc2ccc(C#CCNC(=O)c3cccn(Cc4ccc(F)c(F)c4)c3=O)cc12` [II-33], the pIC50 is 7.10. Under `O=C(NCC#Cc1ccc2nccc(C3=CCNCC3)c2c1)c1cncn(Cc2ccc(F)c(F)c2)c1=O` [II-90] stands 7.07; under `CN(C)CCCOc1ccnc2ccc(C#CCNC(=O)c3cccn(C(CO)c4ccc(F)c(F)c4)c3=O)cc12` (centres unmarked) [I-125], 8.70. Under `O=C(NCC#Cc1ccc2nccc(NC3CC3)c2c1)c1cncn(Cc2ccc(F)c(F)c2)c1=O` [I-115] stands 6.11.

As for `COC(=O)c1cnc2ccc(C#CCNC(=O)c3cncn(Cc4ccc(F)c(F)c4)c3=O)c(C)c2c1` [I-82], the pIC50 was 6.92.

For the compound `O=C(NCC#Cc1ccc2ncc(C(=O)N3CCNCC3)cc2c1)c1cncn(Cc2ccc(F)c(F)c2)c1=O` [II-83], the negative logarithm of the IC50 (pIC50) was 6.54. Under `CN1CCC(Oc2cnc3ccc(C#CCNC(=O)c4cncn(Cc5ccc(F)c(F)c5)c4=O)cc3n2)CC1` [I-38] stands 7.25; under `CN(C)CCCOc1ccnc2ccc(C#CCNC(=O)c3cccn(Cc4ccc(F)c(F)c4)c3=O)cc12` [I-93], 7.92. In the case of `CN(C)CCCN(C)c1ccnc2ccc(C#CCNC(=O)c3cncn(Cc4ccc(F)c(F)c4)c3=O)cc12` [I-89], the pIC50 is 7.64.

For the compound `C=C(C)c1cnc2ccc(C#CCNC(=O)c3cncn(Cc4ccc(F)c(F)c4)c3=O)cc2n1` [I-69], the pIC50 was 7.19. The result for `CC(c1ccc(F)c(F)c1)n1cccc(C(=O)NCC#Cc2ccc3nccc(OCCCN(C)C)c3c2)c1=O` (centres unmarked) [I-124] reads 8.70; that for `CNc1c([N+](=O)[O-])cnc2ccc(C#CCNC(=O)c3cncn(Cc4ccc(F)c(F)c4)c3=O)cc12` [I-127], 7.01; that for `O=C(NCC#Cc1ccc2nccc(C3=CCCNC3)c2c1)c1cncn(Cc2ccc(F)c(F)c2)c1=O` [II-91], 7.85. Consider `O=C(NCC#Cc1ccc2nccc(OCC3CCOCC3)c2c1)c1cncn(Cc2ccc(F)c(F)c2)c1=O` [I-125.6], for which the pIC50 was 7.59. Under `O=C(NCC#Cc1ccc2nccc(NC3CC3)c2c1)c1cccn(Cc2ccc(F)c(F)c2)c1=O` [I-116] stands 6.00. The result for `O=C(NCC#Cc1ccc2ncc(N[C@H]3CC[C@H](N4CCN(CC5CC5)CC4)CC3)nc2c1)c1ccnn(Cc2ccc(F)c(F)c2)c1=O` [I-62] reads 8.70; that for `Cc1ccnc2ccc(C#CCNC(=O)c3cncn(Cc4ccc(F)c(F)c4)c3=O)cc12` [II-92], 7.25. Under `O=C(NCC#Cc1ccc2ncnc(NCCc3ccccn3)c2c1)c1cncn(Cc2ccc(F)c(F)c2)c1=O` [II-7] stands 6.98; under `CCN(CC)c1ncnc2ccc(C#CCNC(=O)c3cccn([C@H](CO)c4ccccc4)c3=O)cc12` [II-56], 8.22; under `COCCN1CCC(Nc2cnc3ccc(C#CCNC(=O)c4cccn(Cc5ccc(F)c(F)c5)c4=O)cc3c2)CC1` [I-74], 8.10. Regarding `CN(C)CC(C)(C)COc1ccnc2ccc(C#CCNC(=O)c3cccn(Cc4ccc(F)c(F)c4)c3=O)cc12` [I-103], the negative logarithm of the IC50 (pIC50) is 7.48. As to `N#Cc1cnc2ccc(C#CCNC(=O)c3cccn(Cc4ccc(F)c(F)c4)c3=O)cc2c1NCC1CCCCC1` [II-97], the pIC50 was 5.98.

As to `CN(C)CCOc1ccnc2ccc(C#CCNC(=O)c3cncn(Cc4ccc(F)c(F)c4)c3=O)cc12` [I-99], the pIC50 is 7.44. The result for `O=C(NCC#Cc1ccc2nccc(OCC3CCCNC3)c2c1)c1cncn(Cc2ccc(F)c(F)c2)c1=O` (centres unmarked) [I-123] reads 8.70; that for `CN1CCC(Nc2cnc3ccc(C#CCNC(=O)c4cccn(Cc5ccc(F)c(F)c5)c4=O)cc3n2)CC1` [I-31], 8.30.

For `CC(c1ccc(F)c(F)c1)n1cccc(C(=O)NCC#Cc2ccc3nccc(OC[C@H]4CCN(C)C4)c3c2)c1=O` (some centres unmarked) [I-125.10], the pIC50 was 8.52. Turning to `CN1CCC(Oc2ccnc3ccc(C#CCNC(=O)c4cccn(Cc5ccc(F)c(F)c5)c4=O)cc23)C1` (centres unmarked) [I-107], the pIC50 is 6.67.

For `O=C(NCC#Cc1ccc2ncc(NC3CC(N4CCCC4)C3)nc2c1)c1cncn(Cc2ccc(F)c(F)c2)c1=O` (centres unmarked) [I-29], the pIC50 is 7.39.

Turning to `CNc1ncnc2cc(F)c(C#CCNC(=O)c3c(C)n(C)n(Cc4ccc(F)c(F)c4)c3=O)cc12` [I-6], the pIC50 was 7.17. The result for `CC(C)=Cc1cnc2ccc(C#CCNC(=O)c3cncn(Cc4ccc(F)c(F)c4)c3=O)cc2n1` [I-68] reads 6.63. Under `CN1CCN(c2cnc3ccc(C#CCNC(=O)c4cncn(Cc5ccc(F)c(F)c5)c4=O)cc3n2)CC1` [I-24] stands 6.93. Under `CC(c1cc(F)c(F)c(F)c1)n1cccc(C(=O)NCC#Cc2ccc3nccc(OC[C@@H]4CCCN(C)C4)c3c2)c1=O` (some centres unmarked) [I-125.18] stands 8.70. For `O=C(NCC#Cc1ccc2ncnc(NCCc3ccco3)c2c1)c1cncn(Cc2ccc(F)c(F)c2)c1=O` [II-6], the pIC50 was 7.01.

As for `O=C(NCC#Cc1ccc2ncc(N[C@H]3CC[C@H](N4CCN(CC5CC5)CC4)CC3)nc2c1)c1cccn([C@H](CO)c2cccc(F)c2)c1=O` [I-61], the negative logarithm of the IC50 (pIC50) is 8.70. For `CN1CCC(Nc2cnc3ccc(C#CCNC(=O)c4cncn(Cc5ccc(F)c(F)c5)c4=O)cc3n2)CC1` [I-19], the pIC50 is 8.40. The result for `CN1CCC(Nc2cnc3ccc(C#CCNC(=O)c4cccn([C@H](CO)c5ccccc5)c4=O)cc3n2)CC1` [I-32] reads 8.10; that for `COCCN1CCN(C(=O)c2cnc3ccc(C#CCNC(=O)c4cncn(Cc5ccc(F)c(F)c5)c4=O)cc3c2)CC1` [II-85], 6.00; that for `CCN1CC[C@@H](Nc2cnc3ccc(C#CCNC(=O)c4cncn(Cc5ccc(F)c(F)c5)c4=O)cc3n2)[C@@H](F)C1` [I-45], 8.10. Turning to `Cc1ncnc2ccc(C#CCNC(=O)c3cncn(Cc4ccc(F)c(F)c4)c3=O)cc12` [II-66], the pIC50 was 7.01. In the case of `N#Cc1cnc2ccc(C#CCNC(=O)c3cccn(Cc4ccc(F)c(F)c4)c3=O)cc2c1NCc1ccccc1` [II-102], the pIC50 was 6.06. The result for `CN(c1ccccc1)c1ncnc2ccc(C#CCNC(=O)c3cncn(Cc4ccc(F)c(F)c4)c3=O)cc12` [II-48] reads 7.82. For `COc1cccc(CN(C)c2ncnc3ccc(C#CCNC(=O)c4cccn(Cc5ccc(F)c(F)c5)c4=O)cc23)c1` [II-45], the pIC50 was 7.20. The result for `CN(c1ncnc2ccc(C#CCNC(=O)c3cncn(Cc4ccc(F)c(F)c4)c3=O)cc12)C1CC1` [II-20] reads 7.89; that for `CN(C)c1ncnc2ccc(C#CCNC(=O)c3cncn(Cc4ccc(F)c(F)c4)c3=O)cc12` [II-4], 7.59. The result for `CONc1ncnc2ccc(C#CCNC(=O)c3cncn(Cc4ccc(F)c(F)c4)c3=O)cc12` [II-61] reads 7.24.
